In the supplement of paper PMC11061612:

How the values were obtained:
Test in all cases: combination Emax (second highest fraction inhibited in the dose matrix, 72 h); higher = more inhibition; extreme values may be limits of the assay
[1] = system: UM-UC-3 (Bladder Carcinoma)
Procedure, shortened: (§1)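 Cell lines in DMEM/F12 or RPMI with 10% FBS were plated in 1536-well plates, held 24 hours at 37°C, 5% CO2, then given two-drug dose matrices for 72 hours (DMSO typically 0.2%). Viability was read by CellTiter-Glo 2.0 luminescence and scaled as inhibition from 0 (vehicle wells) to 1 (blank wells). Combination Emax is the second-highest inhibition in the matrix; Bliss excess is observed combination effect minus expected EA + EB − EA·EB, EA and EB being single-agent effects.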

T98G (Glioblastoma) = system: T98G (Glioblastoma)
Procedure, shortened: as §1

[2] = system: HCC1806 (Breast Carcinoma)
Procedure, shortened: as §1

[3] = system: RC-K8 (B-Cell Non-Hodgkin's Lymphoma)
Procedure, shortened: as §1

[4] = system: OVCA420 (Ovarian Carcinoma)
Procedure, shortened: as §1

[5] = system: MFE-296 (Endometrial Carcinoma)
Procedure, shortened: as §1

[6] = system: Calu-3 (Lung Adenocarcinoma)
Procedure, shortened: as §1

[7] = system: EC-GI-10 (Esophageal Squamous Cell Carcinoma)
Procedure, shortened: as §1

NB10 (Neuroblastoma) = system: NB10 (Neuroblastoma)
Procedure, shortened: as §1

[8] = system: TE-9 (Esophageal Squamous Cell Carcinoma)
Procedure, shortened: as §1

[9] = system: ME-1 (Acute Myeloid Leukemia)
Procedure, shortened: as §1

[10] = system: DEL (T-Cell Non-Hodgkin's Lymphoma)
Procedure, shortened: as §1

Structure (SMILES)	combination Emax [1]	combination Emax (T98G (Glioblastoma))	combination Emax [2]	combination Emax [3]	combination Emax [4]	combination Emax [5]	combination Emax [6]	combination Emax [7]	combination Emax (NB10 (Neuroblastoma))	combination Emax [8]	combination Emax [9]	combination Emax [10]
NC1(C(=O)N[C@@H](CCO)c2ccc(Cl)cc2)CCN(c2ncnc3[nH]ccc23)CC1 [Capivasertib] + Cn1cnc2c(F)c(Nc3ccc(Br)cc3Cl)c(C(=O)NOCCO)cc21 [Selumetinib] (first compound max 10 µM, 7x7, partner max 10 µM)	0.533	0.49	0.595	0.367	0.651	0.618	0.461	0.927	0.428	0.398	0.342	0.578
Cc1nc(Nc2ncc(C(=O)Nc3c(C)cccc3Cl)s2)cc(N2CCN(CCO)CC2)n1 [Dasatinib] + CC(=O)Nc1cccc(-n2c(=O)n(C3CC3)c(=O)c3c(Nc4ccc(I)cc4F)n(C)c(=O)c(C)c32)c1 [Trametinib] (first compound max 2 µM, 7x7, partner max 1 µM)	0.685	0.744	0.624	0.124	0.903	0.224	0.619	0.503	0.658	0.271	0.375	0.433
COc1cc2ncnc(Nc3ccc(F)c(Cl)c3)c2cc1OCCCN1CCOCC1 [Gefitinib] + CC(C)n1c(=O)n(C)c2cnc3cc(F)c(-c4ccc(OCCCN5CCCCC5)nc4)cc3c21 [AZD1390] (first compound max 10 µM, 7x7, partner max 0.3 µM)	0.0932	0.12	0.436	0.105	0.646	0.0821	0.738	0.642	0.0716	0.0944	0.199	0.187
CS(=O)(=O)CCNCc1ccc(-c2ccc3ncnc(Nc4ccc(OCc5cccc(F)c5)c(Cl)c4)c3c2)o1 [Lapatinib] + C[C@@H](Oc1cc(-c2cnn(C3CCNCC3)c2)cnc1N)c1c(Cl)ccc(F)c1Cl [Crizotinib] (first compound max 10 µM, 7x7, partner max 10 µM)	0.307	0.949	0.95	0.622	0.964	0.224	0.931	0.986	0.796	0.552	0.194	1
CC(=O)c1c(C)c2cnc(Nc3ccc(N4CCNCC4)cn3)nc2n(C2CCCC2)c1=O [Palbociclib] + CC1(C)CCC(CN2CCN(c3ccc(C(=O)NS(=O)(=O)c4ccc(NCC5CCOCC5)c([N+](=O)[O-])c4)c(Oc4cnc5[nH]ccc5c4)c3)CC2)=C(c2ccc(Cl)cc2)C1 [Venetoclax] (first compound max 10 µM, 7x7, partner max 1 µM)	0.175	0.355	0.268	0.506	0.0625	0.203	0.0931	0.387	0.293	0.114	1	0.874
CC(=O)c1c(C)c2cnc(Nc3ccc(N4CCNCC4)cn3)nc2n(C2CCCC2)c1=O [Palbociclib] + Cc1c2c(nn1C)CSCc1cc(n(C)n1)CSc1cc(c3ccccc3c1)OCCCc1c(C(=O)O)n(C)c3c-2c(Cl)ccc13 [AZD5991] (first compound max 10 µM, 7x7, partner max 1 µM)	0.253	0.4	0.383	0.316	0.265	0.287	0.219	0.543	0.369	0.14	0.693	1
CC(=O)c1c(C)c2cnc(Nc3ccc(N4CCNCC4)cn3)nc2n(C2CCCC2)c1=O [Palbociclib] + Cn1cnc2c(F)c(Nc3ccc(Br)cc3Cl)c(C(=O)NOCCO)cc21 [Selumetinib] (first compound max 10 µM, 7x7, partner max 10 µM)	0.246	0.374	0.414	0.459	0.51	0.105	0.149	0.493	0.579	0.201	0.428	0.92
COc1cccc(OCCCN)c1-c1cc(Nc2cnc(C#N)cn2)n[nH]1 [Prexasertib] + CCc1c2c(nc3ccc(O)cc13)-c1cc3c(c(=O)n1C2)COC(=O)[C@]3(O)CC [SN-38] (first compound max 1 µM, 7x7, partner max 0.3 µM)	0.987	0.904	0.996	1	0.75	0.83	0.549	1	0.865	0.8	0.627	1
C[C@@H](c1ccc2nccn2c1)n1nnc2ncc(-c3cnn(C)c3)nc21 [Savolitinib] + CC1(C)CCC(CN2CCN(c3ccc(C(=O)NS(=O)(=O)c4ccc(NCC5CCOCC5)c([N+](=O)[O-])c4)c(Oc4cnc5[nH]ccc5c4)c3)CC2)=C(c2ccc(Cl)cc2)C1 [Venetoclax] (first compound max 1 µM, 7x7, partner max 1 µM)	0.143	0.159	0.142	0.129	0.0542	0.0764	0.153	0.116	0.149	0.152	1	0.0701
C[C@@H](c1ccc2nccn2c1)n1nnc2ncc(-c3cnn(C)c3)nc21 [Savolitinib] + Cc1c2c(nn1C)CSCc1cc(n(C)n1)CSc1cc(c3ccccc3c1)OCCCc1c(C(=O)O)n(C)c3c-2c(Cl)ccc13 [AZD5991] (first compound max 1 µM, 7x7, partner max 1 µM)	0.14	0.12	0.2	0.113	0.213	0.244	0.2	0.285	0.202	0.239	0.397	1
Cn1cnc2c(F)c(Nc3ccc(Br)cc3Cl)c(C(=O)NOCCO)cc21 [Selumetinib] + C=CCn1c(=O)c2cnc(Nc3ccc(N4CCN(C)CC4)cc3)nc2n1-c1cccc(C(C)(C)O)n1 [AZD1775] (first compound max 10 µM, partner max 1 µM)	0.268	0.699	0.919	0.72	0.508	0.163	0.143	0.919	0.712	0.231	0.484	1
Cn1cnc2c(F)c(Nc3ccc(Br)cc3Cl)c(C(=O)NOCCO)cc21 [Selumetinib] + CC(C)n1c(=O)n(C)c2cnc3cc(F)c(-c4ccc(OCCCN5CCCCC5)nc4)cc3c21 [AZD1390] (first compound max 10 µM, 7x7, partner max 0.3 µM)	0.187	0.191	0.299	0.209	0.436	0.0966	0.115	0.323	0.32	0.13	0.434	0.237
Cn1cnc2c(F)c(Nc3ccc(Br)cc3Cl)c(C(=O)NOCCO)cc21 [Selumetinib] + CCN(CCO)CCCOc1ccc2c(Nc3cc(CC(=O)Nc4cccc(F)c4)[nH]n3)ncnc2c1 [AZD2811] (first compound max 10 µM, 7x7, partner max 1 µM)	0.224	0.226	0.321	0.443	0.493	0.125	0.134	0.546	0.397	0.175	0.413	0.965
Cn1cnc2c(F)c(Nc3ccc(Br)cc3Cl)c(C(=O)NOCCO)cc21 [Selumetinib] + C[C@@H]1COCCN1C2=NC(=NC(=C2)C3(CC3)[S@](=N)(=O)C)C4=C5C=CNC5=NC=C4 [AZD6738] (first compound max 10 µM, 7x7, partner max 10 µM)	0.312	0.731	0.938	0.87	0.562	0.339	0.408	0.647	0.916	0.147	0.469	1
CC(=O)Nc1cccc(-n2c(=O)n(C3CC3)c(=O)c3c(Nc4ccc(I)cc4F)n(C)c(=O)c(C)c32)c1 [Trametinib] + Cc1nc(-c2cn3c(n2)-c2ccc(-c4cnn(C(C)(C)C(N)=O)c4)cc2OCC3)n(C(C)C)n1 [Taselisib] (first compound max 1 µM, 7x7, partner max 10 µM)	0.773	0.855	0.798	0.512	0.917	0.43	0.972	1	0.921	0.824	0.381	0.618
